The values below come from PMC4991273 (2016).

The test system of experiment [1] is ds17 (DNA, duplex) CCAGTTCGTAGTAACCC/GGGTTACTACGAACTGG
The experiment is described as follows: fluorescence emission titration. Particulars: K+ 100 mM; 10 mM lithium cacodylate, pH 7.3; 2 μM compound; per motif (2 compounds per 5 base pairs); per site.

In experiment [2] the test system is ss17 (DNA, single strand) CCAGTTCGTAGTAACCC
The experiment is described as follows: fluorescence emission titration. As to conditions: K+ 100 mM; 10 mM lithium cacodylate, pH 7.3; 2 μM compound; per motif of 5 bases; per site.

Experiment [3] deals with TBA (DNA, G4) GGTTGGTGTGGTTGG
Kind of experiment: fluorescence emission titration. As to conditions: K+ 100 mM; 10 mM lithium cacodylate, pH 7.3; 2 μM compound; per site.

Experiment [4] concerns myc2345 (DNA, G4) TGAGGGTGGGGAGGGTGGGGAA
The experiment is described as follows: fluorescence emission titration. As to conditions: K+ 100 mM; 10 mM lithium cacodylate, pH 7.3; 2 μM compound; per motif (2 compounds per G-quadruplex); per site.

For experiment [5], the system named is PDGF-A (DNA, G4) GGAGGCGGGGGGGGGGGGGCGGGGGCGGGGGCGGGGGAGGGGCGCGGC
Kind of experiment: fluorescence emission titration. As to conditions: K+ 100 mM (DNA annealed in 25 mM KCl); 10 mM lithium cacodylate, pH 7.3; 2 μM compound.

The test system of experiment [6] is ds17 (DNA, duplex) CCAGTTCGTAGTAACCC/GGGTTACTACGAACTGG
Kind of experiment: fluorescence enhancement and lifetime (TCSPC). Particulars: K+ 100 mM; 10 mM lithium cacodylate, pH 7.3; 2 μM compound.

Experiment [7] relates to ss17 (DNA, single strand) CCAGTTCGTAGTAACCC
Kind of experiment: fluorescence enhancement and lifetime (TCSPC). As to conditions: K+ 100 mM; 10 mM lithium cacodylate, pH 7.3; 2 μM compound.

Experiment [8] concerns TBA (DNA, G4) GGTTGGTGTGGTTGG
The experiment is described as follows: fluorescence enhancement and lifetime (TCSPC). As to conditions: K+ 100 mM; 10 mM lithium cacodylate, pH 7.3; 2 μM compound.

Experiment [9] deals with myc2345 (DNA, G4) TGAGGGTGGGGAGGGTGGGGAA
The experiment is described as follows: fluorescence enhancement and lifetime (TCSPC). Particulars: K+ 100 mM; 10 mM lithium cacodylate, pH 7.3; 2 μM compound.

For experiment [10], the system named is PDGF-A (DNA, G4) GGAGGCGGGGGGGGGGGGGCGGGGGCGGGGGCGGGGGAGGGGCGCGGC
The experiment is described as follows: fluorescence enhancement and lifetime (TCSPC). As to conditions: K+ 100 mM (DNA annealed in 25 mM KCl); 10 mM lithium cacodylate, pH 7.3; 2 μM compound.

Turning to `CCCn1c2cccc3oc4cccc5c4c(c4c1cccc4[n+]5CCC)-c32`, the K a is 2.1 ± 0.3 × 10^6 M^-1 in experiment [1]; 1.0 ± 0.2 × 10^6 M^-1 in experiment [2]; 1.2 ± 0.4 × 10^6 M^-1 in [3]; 8.4 ± 2.9 × 10^5 M^-1 in experiment [4]; 1.6 ± 1.5 × 10^6 M^-1 in [5].

Consider `c1cc2oc3cccc4c3c3c5c(cccc5[n+]4CCN4CCOCC4)n(CCN4CCOCC4)c(c1)c2-3`, for which the binding entry in experiment [6], in experiment [7], in experiment [8], in experiment [9] and in experiment [10] was “yes” throughout.
